Results reported in US20150175599A1, “FAAH Inhibitors” (Ironwood Pharmaceuticals, Inc., priority 2010, published 2015).

Key:
FAAH = target: T1, FAAH (Homo sapiens, UniProt O00519); test: FAAH inhibition, human brain membrane homogenate assay; type: biochemical; settings: human brain homogenate; average activity; read-out: Human brain Extract FAAH IC50
T1 construct: Reactions were initiated by adding 12.5 μg of brain microsome; tissue ABS, Inc; host or cells: human brain cerebral cortex, membrane/microsome fraction pooled from 3 donors
T1 sequence (O00519 1-579): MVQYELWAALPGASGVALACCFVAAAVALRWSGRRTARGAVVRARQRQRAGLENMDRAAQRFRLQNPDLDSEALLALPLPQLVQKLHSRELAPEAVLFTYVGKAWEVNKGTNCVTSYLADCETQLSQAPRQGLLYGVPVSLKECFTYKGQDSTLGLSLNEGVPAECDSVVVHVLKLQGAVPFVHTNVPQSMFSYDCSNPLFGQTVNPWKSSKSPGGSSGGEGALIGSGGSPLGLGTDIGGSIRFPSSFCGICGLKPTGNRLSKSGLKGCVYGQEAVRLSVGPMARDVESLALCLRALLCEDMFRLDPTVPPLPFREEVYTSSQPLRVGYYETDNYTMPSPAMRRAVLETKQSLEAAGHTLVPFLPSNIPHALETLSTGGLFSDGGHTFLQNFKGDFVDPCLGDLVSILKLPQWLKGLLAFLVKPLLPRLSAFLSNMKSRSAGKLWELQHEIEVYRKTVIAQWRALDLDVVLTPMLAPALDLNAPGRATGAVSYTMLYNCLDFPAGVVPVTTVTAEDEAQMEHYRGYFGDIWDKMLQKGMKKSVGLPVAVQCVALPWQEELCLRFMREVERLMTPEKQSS

hERG channel = target: T2, hERG channel (Homo sapiens, UniProt Q12809); test: hERG channel inhibition, automated patch clamp (IonWorks HT, hERG-CHO); type: cell-based; settings: CHO cells expressing hERG, 600 s incubation; for inhibition at 600 s, 1 µM: 1 μM compound, read-out: hERG Channel Inhibition % (at 1 μM), vehicle-subtracted values; for inhibition at 600 s, 10 µM: 10 μM compound, read-out: hERG Channel Inhibition % (at 10 μM), vehicle-subtracted values
T2 construct: expressed in transfected cells; host or cells: CHO (hERG-CHO), under Geneticin selection
Protocol: Human ether-a-gogo-related (hERG) ion channel encodes the inward rectifying voltage gated potassium channel in the heart and has a major role during the repolarization of the cardiac action potential. It is well established that blockade of this ion channel can lead to potentially lethal arrhythmias. hERG pre-clinical safety data is often used by regulatory agencies in elucidate the toxicity profile of certain compositions. The disclosed compounds of Table 1 were tested for their ability to inhibit hERG ion channels.
Media components include F12 Nutrient Mixture (Ham) with GlutaMAX™ (Invitrogen, Cat#31765), Fetal Bovine Serum, Certified (Invitrogen, Cat#16000-044—not heat activated), and Geneticin® Selective Antibiotic (Invitrogen, Cat#10131-027).
One vial of frozen cells, at 1.62×10^6 cells are thawed into a T150 flask (BD Falcon 355001) with 40 mL of pre-warmed complete media. Cells are cultured at 37° C., 5% CO2 for four hours prior to gently changing media. 99% of cells appear attached at this time point.
The flask is media changed at 24 hours post-thaw, the cells are imaged, media changed, and returned to the incubator. At this point, the cells appear healthy and about 25% confluent in the flask. Cells are typically passed 24-48 hours after thaw according to the following intervals and densities below. Cells are incubated at 30° C. for 48 hours prior to assay.
Using an automated patch clamp apparatus (IonWorks^HT), a three pulse protocol was applied by stepping from a holding potential of −80 mV to […] for 2 s, to activate hERG channels. The membrane voltage was then stepped back to −50 mV for 2 s to evoke a tail current prior to returning to the holding potential for 1 s. This sequence was repeated a further two times. This voltage protocol was applied prior to drug (Pre compound) and after 600 s in the presence of drug (Post compound).
The amplitude of the hERG tail current was calculated by measuring the difference between the maximum current on stepping to −50 mV of the third pulse (i.e. peak of the outward hERG tail current) and the current measured immediately prior to activation of any hERG current. This parameter was assessed before (pre tail current amplitude) and after 600 s incubation (post tail current amplitude) in drug. In order to assess the amount of block produced by test compounds, the data was first filtered using the IonWorks™ software to exclude any cells where the seal resistance was less than 50 MOhm. The remaining data was then exported to an excel compatible data file and only currents with tail currents greater than 250 pA were analyzed. The post/pre tail current amplitude ratio for the third pulse was calculated for each drug and control, and presented as percent inhibition.

T2 sequence (Q12809 whole entry): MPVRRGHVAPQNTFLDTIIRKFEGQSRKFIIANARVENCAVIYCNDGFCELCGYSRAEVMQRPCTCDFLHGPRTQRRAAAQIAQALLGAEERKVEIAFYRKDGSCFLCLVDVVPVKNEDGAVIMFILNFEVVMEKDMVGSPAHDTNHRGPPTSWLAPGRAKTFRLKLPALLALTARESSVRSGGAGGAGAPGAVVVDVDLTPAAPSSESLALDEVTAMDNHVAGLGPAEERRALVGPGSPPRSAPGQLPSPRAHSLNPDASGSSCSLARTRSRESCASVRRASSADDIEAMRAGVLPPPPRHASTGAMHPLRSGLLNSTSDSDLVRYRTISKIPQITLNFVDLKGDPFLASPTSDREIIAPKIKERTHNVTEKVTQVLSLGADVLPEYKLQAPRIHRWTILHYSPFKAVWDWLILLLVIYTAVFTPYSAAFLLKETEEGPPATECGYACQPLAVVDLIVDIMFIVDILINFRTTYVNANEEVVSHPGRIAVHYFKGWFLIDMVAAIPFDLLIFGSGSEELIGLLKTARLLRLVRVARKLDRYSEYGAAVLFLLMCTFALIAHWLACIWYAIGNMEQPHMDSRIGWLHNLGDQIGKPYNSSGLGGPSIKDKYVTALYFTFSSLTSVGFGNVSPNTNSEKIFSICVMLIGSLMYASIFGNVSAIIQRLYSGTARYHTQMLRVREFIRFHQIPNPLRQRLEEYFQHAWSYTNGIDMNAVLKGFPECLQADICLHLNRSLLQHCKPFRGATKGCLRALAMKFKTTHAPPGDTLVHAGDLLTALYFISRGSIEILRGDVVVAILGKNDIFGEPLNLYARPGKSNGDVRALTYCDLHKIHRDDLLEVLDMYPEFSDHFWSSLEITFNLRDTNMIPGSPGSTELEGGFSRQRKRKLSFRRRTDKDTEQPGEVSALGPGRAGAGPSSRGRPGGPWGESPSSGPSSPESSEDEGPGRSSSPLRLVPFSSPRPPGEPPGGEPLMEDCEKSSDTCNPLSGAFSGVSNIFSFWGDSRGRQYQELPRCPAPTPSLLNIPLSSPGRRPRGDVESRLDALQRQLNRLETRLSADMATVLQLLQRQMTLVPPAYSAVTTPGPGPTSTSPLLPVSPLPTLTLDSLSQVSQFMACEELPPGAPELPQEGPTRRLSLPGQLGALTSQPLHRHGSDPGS

Compound	IC50 (FAAH) [nM]	inhibition at 600 s, 1 µM (hERG channel) [%]	inhibition at 600 s, 10 µM (hERG channel) [%]
COc1cc(NC(=O)C(=O)c2c(C)n(Cc3ccc(Cl)cc3)c3ccc(C(=O)N(C)C)cc23)ccn1 [Compound 6, 1-(4-chlorobenzyl)-3-(2-(2-methoxypyridin-4-ylamino)-2-oxoacetyl)-N,N,2-trimethyl-1H-indole-5-carboxamide]	100 to 1000	< 25	< 25
COc1cc(NC(=O)C(=O)c2c(C)n(Cc3ccc(Cl)cc3)c3ccc(N(C)C(=O)OC(C)(C)C)cc23)ccn1 [Compound 7, Tert-butyl(1-(4-chlorobenzyl)-3-(2-((2-methoxypyridin-4-yl)amino)-2-oxoacetyl)-2-methyl-1H-indol-5-yl)(methyl)carbamate]	100 to 1000	< 25	< 25
CNc1ccc2c(c1)c(C(=O)C(=O)Nc1ccnc(OC)c1)c(C)n2Cc1ccc(Cl)cc1 [Compound 9, 2-(1-(4-chlorobenzyl)-2-methyl-5-(methylamino)-1H-indol-3-yl)-N-(2-methoxypyridin-4-yl)-2-oxoacetamide]	< 100	< 25	< 25
COCc1ccc2c(c1)c(C(=O)C(=O)Nc1ccnc(OC)c1)c(C)n2Cc1ccc(Cl)cc1 [Compound 11, 2-(1-(4-chlorobenzyl)-5-(methoxymethyl)-2-methyl-1H-indol-3-yl)-N-(2-methoxypyridin-4-yl)-2-oxoacetamide]	< 100	< 25	25 to 50
COc1ccc2c(c1)c(C(=O)C(=O)Nc1ccnc(OC)c1)c(C)n2Cc1cnc(Cl)cn1 [Compound 12, 2-(1-((5-chloropyrazin-2-yl)methyl)-5-methoxy-2-methyl-1H-indol-3-yl)-N-(2-methoxypyridin-4-yl)-2-oxoacetamide]	< 100	< 25	< 25
COc1cc(NC(=O)C(=O)c2c(C)n(Cc3ncc(Cl)cc3Cl)c3cc(F)c(OC)cc23)ccn1 [Compound 13, 2-(1-((3,5-dichloropyridin-2-yl)methyl)-6-fluoro-5-methoxy-2-methyl-1H-indol-3-yl)-N-(2-methoxypyridin-4-yl)-2-oxoacetamide]	< 100	< 25	< 25
COc1cc(NC(=O)C(=O)c2c(C)n(Cc3ccc(F)cc3F)c3cc(F)c(OC)cc23)ccn1 [Compound 14, 2-(1-(2,4-difluorobenzyl)-6-fluoro-5-methoxy-2-methyl-1H-indol-3-yl)-N-(2-methoxypyridin-4-yl)-2-oxoacetamide]	< 100	< 25	< 25
COc1cc(NC(=O)C(=O)c2c(C)n(Cc3ccc(Cl)cc3)c3ccc(C#N)cc23)ccn1 [Compound 15, 2-(1-(4-chlorobenzyl)-5-cyano-2-methyl-1H-indol-3-yl)-N-(2-methoxypyridin-4-yl)-2-oxoacetamide]	< 100	< 25	50 to 75
COc1ccc2c(c1)c(C(=O)C(=O)Nc1ccnc(OC)c1)c(C)n2Cc1ccncc1 [Compound 16, 2-(5-methoxy-2-methyl-1-(pyridin-4-ylmethyl)-1H-indol-3-yl)-N-(2-methoxypyridin-4-yl)-2-oxoacetamide]	100 to 1000	< 25	< 25
COc1cc(NC(=O)C(=O)c2c(C)n(Cc3ccc(Cl)cc3)c3ccc(N(C)C)cc23)ccn1 [Compound 17, 2-(1-(4-chlorobenzyl)-5-(dimethylamino)-2-methyl-1H-indol-3-yl)-N-(2-methoxypyridin-4-yl)-2-oxoacetamide]	< 100	< 25	< 25
COc1cc(NC(=O)C(=O)c2c(C)n(Cc3ccc(Cl)cc3)c3ccc(Br)cc23)ccn1 [Compound 18, 2-(5-bromo-1-(4-chlorobenzyl)-2-methyl-1H-indol-3-yl)-N-(2-methoxypyridin-4-yl)-2-oxoacetamide]	< 100	< 25	< 25
COc1cc(NC(=O)C(=O)c2c(C)n(Cc3ccc(Cl)cc3)c3ccc([N+](=O)[O-])cc23)ccn1 [Compound 19, 2-(1-(4-chlorobenzyl)-2-methyl-5-nitro-1H-indol-3-yl)-N-(2-methoxypyridin-4-yl)-2-oxoacetamide]	< 100	< 25	25 to 50
COc1cc(NC(=O)C(=O)c2c(C)n(Cc3ccc(Cl)cc3)c3ccc(N)cc23)ccn1 [Compound 20, 2-(5-amino-1-(4-chlorobenzyl)-2-methyl-1H-indol-3-yl)-N-(2-methoxypyridin-4-yl)-2-oxoacetamide]	< 100	< 25	< 25
COc1cc(NC(=O)C(=O)c2c(C)n(Cc3ccc(Cl)cc3)c3ccc(C(F)(F)F)cc23)ccn1 [Compound 21, 2-(1-(4-chlorobenzyl)-2-methyl-5-(trifluoromethyl)-1H-indol-3-yl)-N-(2-methoxypyridin-4-yl)-2-oxoacetamide]	< 100	< 25	25 to 50
COc1cc(NC(=O)C(=O)c2c(C)n(Cc3ccc(Cl)cc3)c3ccc(NC(C)=O)cc23)ccn1 [Compound 22, 2-(5-acetamido-1-(4-chlorobenzyl)-2-methyl-1H-indol-3-yl)-N-(2-methoxypyridin-4-yl)-2-oxoacetamide]	< 100	< 25	< 25
COc1cc(NC(=O)C(=O)c2c(C)n(Cc3ccc(Cl)cc3)c3ccc(OC(F)(F)F)cc23)ccn1 [Compound 23, 2-(1-(4-chlorobenzyl)-2-methyl-5-(trifluoromethoxy)-1H-indol-3-yl)-N-(2-methoxypyridin-4-yl)-2-oxoacetamide]	< 100	< 25	50 to 75
COc1cc(NC(=O)C(=O)c2c(C)n(Cc3ncc(Cl)cc3Cl)c3ccc(C)cc23)ccn1 [Compound 30, 2-(1-((3,5-dichloropyridin-2-yl)methyl)-2,5-dimethyl-1H-indol-3-yl)-N-(2-methoxypyridin-4-yl)-2-oxoacetamide]	< 100	< 25	50 to 75
COc1cc(NC(=O)C(=O)c2c(C)n(Cc3ncc(Cl)cc3Cl)c3ccccc23)ccn1 [Compound 31, 2-(1-((3,5-dichloropyridin-2-yl)methyl)-2-methyl-1H-indol-3-yl)-N-(2-methoxypyridin-4-yl)-2-oxoacetamide]	< 100	< 25	< 25
COc1ccc(Cn2c(C)c(C(=O)C(=O)Nc3ccnc(OC)c3)c3cc(OC)c(F)cc32)nc1 [Compound 32, 2-(6-fluoro-5-methoxy-1-((5-methoxypyridin-2-yl)methyl)-2-methyl-1H-indol-3-yl)-N-(2-methoxypyridin-4-yl)-2-oxoacetamide]	< 100	< 25	< 25
